In patent publication US20020086278A1, “CHROMOGENIC MEDIA CONTAINING BLOOD OR HEMIN” (priority 1999, published 2002):
Counter-ions that a name gives are not always drawn.

Tests used:
[1] = system: Klebsiella pneumoniae (klpn); assay: Example 3: colony color on chromogenic TSA II with 5% sheep blood (chromogen in medium); format: cell-based; conditions: CO2, 21 h
Salmonella spp. (sasp) = format: cell-based
S. milleri (stmi) = assay: Example 3: colony color on chromogenic TSA II with 5% sheep blood (chromogen in medium); format: cell-based
[2] = system: Aeromonas hydrophilia (aehy); assay: as above; format: cell-based; conditions: for Colony Color: CO2, 21 h
[3] = system: Entercoccus faecalis (enfa); assay: as above; format: cell-based; conditions: for Colony Color: 21 h
[4] = system: Staphylococcus Coag Neg (step); assay: as above; format: cell-based; conditions: 21 h
N. gonorrhoeae 35201 = assay: Example 1: growth and colony color on plates surface-spread with chromogen; format: cell-based; conditions: Summary of Table I; N. gonorrhoeae 35201
[5] = system: Staphylococcus aureus (stau); assay: Example 3: colony color on chromogenic TSA II with 5% sheep blood (chromogen in medium); format: cell-based
S. agalactiae 12386 = assay: Example 2: effect of incubation conditions on colony color formation; format: cell-based, Streptococcus agalactiae
[6] = system: Gardnerella vaginalis 14019; assay: Example 1: growth and colony color on plates surface-spread with chromogen; format: cell-based; conditions: Summary of Table I; G. vaginalis 14014
S. pneumoniae (stpn) = assay: Example 3: colony color on chromogenic TSA II with 5% sheep blood (chromogen in medium); format: cell-based
[7] = system: Streptococcus agalactiae (stag); assay: as above; format: cell-based
[8] = system: Serratia marcescens (sema); assay: as above; format: cell-based
[9] = system: Pseudomonas aeruginosa (psae); assay: as above; format: cell-based; conditions: for Colony Color: CO2, 21 h
[10] = system: Branhamella catarrhalis (brca); assay: as above; format: cell-based; conditions: brca 25238; CO2; 21 h
S pyogenes (stpy) = assay: as above; format: cell-based; conditions: for Colony Color: 21 h
[11] = system: Citrobacter freundii (cifr); assay: as above; format: cell-based; conditions: for Colony Color: CO2, 21 h
E. coli 25922 = assay: Example 2: effect of incubation conditions on colony color formation; format: cell-based, Escherichia coli
[12] = system: Streptococcus pneumoniae 6303; assay: Example 1: growth and colony color on plates surface-spread with chromogen; format: cell-based
[13] = system: Branhamella catarrhalis 25238; assay: as above; format: cell-based
Group B Strep. 12386 = assay: as above; format: cell-based; conditions: for Color / Growth: Group B Strep 12386
E. faecium (enfu) = assay: Example 3: colony color on chromogenic TSA II with 5% sheep blood (chromogen in medium); format: cell-based; conditions: for Colony Color: enfu 49032, 21 h
[14] = chromogenic TSA II with 5% Sheep Blood, 0.1 g/l
[15] = chromogenic TSA II with 5% Sheep Blood, 0.1 g/l, 3 strains tested
[16] = chromogenic TSA II with 5% Sheep Blood, 0.1 g/l, 6 strains tested
[17] = chromogenic TSA II with 5% Sheep Blood, 0.1 g/l, 1 strain tested
[18] = Summary of Table I, Group B Strep. 12386

For O=P(O)(O)Oc1c[nH]c2cc(Cl)c(Br)cc12 [Mag-Phos, 5-Br-6-Cl-3-indolyl-phosphate, p-touidine salt], the “Colony Color” value ([1]; klpn 13883) was 0, the “Colony Color” value ([1]; klpn 33606) was 0 and the “Colony Color (Summary)” value (Salmonella spp. (sasp)) was “+”. The Growth vs. control (S. milleri (stmi); [14]) was “no growth”, the “Colony Color” value (S. milleri (stmi); stmi 6249, air, 21 h) was 0 and the “Colony Color” value ([2]; aehy 7965) was “gp”. For the same molecule, the “Colony Color” value ([2]; aehy 7966) was “gp”, the “Colony Color (Summary)” value [2, 15] was “+” and the “Colony Color (Summary)” value [3, 16] was “+”. For the same molecule, the “Colony Color” value ([3]; enfa 597, CO2) was “lp”, the “Colony Color” value ([3]; enfa 597, air) was “lp” and the “Colony Color” value ([3]; enfa 10741, CO2) was “lp”. For the same molecule, the “Colony Color” value ([3]; enfa 12953, CO2) was “lp”, the “Colony Color” value ([3]; enfa 14506, CO2) was “lp” and the “Colony Color” value ([3]; enfa 29212, CO2) was “lp”. The “Colony Color” value ([4]; step 12228, CO2) was 0, the “Colony Color” value ([4]; step 12228, air) was “lp” and the “Colony Color” value ([4]; step cdc1, CO2) was “lp”. For the same molecule, the “Colony Color” value ([4]; step cdc1, air) was “lp”, the “Colony Color” value ([4]; step cdc2, CO2) was 0 and the “Colony Color” value ([4]; step cdc2, air) was 0. For the same molecule, the “Colony Color” value ([4]; step cdc3, CO2) was 0, the “Colony Color” value ([4]; step cdc3, air) was 0 and the “Colony Color” value ([4]; step cdc4, CO2) was “lp”. For the same molecule, the “Colony Color” value ([4]; step cdc4, air) was “lp”, the “Substrates Producing Growth Inhibition” value (N. gonorrhoeae 35201) was “Mag-phos” and the “Colony Color” value ([5]; stau 1006, CO2, 21 h) was 0. For the same molecule, the “Colony Color” value ([5]; stau 1007, CO2, 21 h) was 0, the “Colony Color” value ([5]; stau 1008, CO2, 21 h) was “vlp” and the “Colony Color” value ([5]; stau 1009, CO2, 21 h) was “vlp”. The “Colony Color” value ([5]; stau 25923, CO2, 24 h) was “lp”, the “Colony Color” value ([5]; stau 25923, air, 24 h) was “lp” and the Colony Color (S. agalactiae 12386) was “purple (m)”. The “Substrates Producing Growth Inhibition” value [6] was “Mag-phos”, the Growth vs. control (S. pneumoniae (stpn); [14]) was “<growth” and the “Colony Color (Summary)” value (S. pneumoniae (stpn); [16]) was 0,. For the same molecule, the “Colony Color” value (S. pneumoniae (stpn); stpn 1259, CO2, 21 h) was 0, the “Colony Color” value (S. pneumoniae (stpn); stpn 1260, CO2, 21 h) was 0 and the “Colony Color” value (S. pneumoniae (stpn); stpn 1628, CO2, 21 h) was 0. For the same molecule, the “Colony Color” value (S. pneumoniae (stpn); stpn 6303, CO2, 24 h) was 0, the “Colony Color” value (S. pneumoniae (stpn); stpn 6303, air, 24 h) was “db” and the “Colony Color” value (S. pneumoniae (stpn); stpn 6305, CO2, 24 h) was 0. The “Colony Color” value (S. pneumoniae (stpn); stpn 6305, air, 24 h) was 0, the “Colony Color” value [7] was “lp” and the “Colony Color (Summary)” value [7] was “+”. For the same molecule, the “Colony Color (Summary)” value [8, 17] was 0, the “Colony Color” value ([8]; sema 13880, CO2, 21 h) was 0 and the “Colony Color (Summary)” value [9, 15] was 0. For the same molecule, the “Colony Color” value ([9]; psae 9027) was 0, the “Colony Color” value ([9]; psae 15442) was 0 and the “Colony Color” value ([9]; psae 33607) was 0. For the same molecule, the “Colony Color” value [10] was 0, the Growth vs. control (S pyogenes (stpy); [14]) was “<grth” and the “Colony Color” value (S pyogenes (stpy); stpy 1027, CO2) was “vlp”. The “Colony Color” value (S pyogenes (stpy); stpy 1028, CO2) was “vlp”, the “Colony Color” value (S pyogenes (stpy); stpy 1029, CO2) was “vlp” and the “Colony Color” value (S pyogenes (stpy); stpy 1030, CO2) was “vlp”. For the same molecule, the “Colony Color” value (S pyogenes (stpy); stpy 19615, CO2) was “lp”, the “Colony Color” value (S pyogenes (stpy); stpy 19615, air) was “lp” and the “Colony Color” value (S pyogenes (stpy); stpy 49117, CO2) was “lp”. For the same molecule, the “Colony Color” value (S pyogenes (stpy); stpy 51339, CO2) was “lp”, the “Colony Color (Summary)” value ([11]; chromogenic TSA II with 5% Sheep Blood, 0.1 g/l, 2 strains tested) was 0 and the “Colony Color” value ([11]; cifr 8454) was 0. For the same molecule, the “Colony Color” value ([11]; cifr 33128) was 0, the Colony Color (E. coli 25922) was “purple (m)” and the “Substrates Producing Growth Inhibition” value ([12]; Summary of Table I, S. pneumoniae 6303) was “Mag-phos”. The Growth ([12]; TSA II 5SB, S. pneu: 6303) was “<”, the “Substrates Producing Growth Inhibition” value ([13]; Summary of Table I, B. catarrhalis 25238) was “Mag-Phos” and the Growth ([13]; TSA II 5SB, B. catt 25258) was “<<”. For the same molecule, the Color (Group B Strep. 12386; Choc II) was “purple”, the “Substrates Producing Color” value (Group B Strep. 12386; [18]) was “Mag-phos” and the “Substrates Producing Growth Inhibition” value (Group B Strep. 12386; [18]) was “Slight inhib. w/ X-”. The Color (Group B Strep. 12386; TSA II 5SB) was “purple (a)”, the Growth (Group B Strep. 12386; TSA II 5SB) was “<” and the Color (Group B Strep. 12386; TSA Plain) was “purple”. For the same molecule, the Growth (Group B Strep. 12386; TSA Plain) was “<”, the “Colony Color (Summary)” value (E. faecium (enfu); [17]) was “+” and the “Colony Color” value (E. faecium (enfu); CO2) was “vlgp”. For the same molecule, the “Colony Color” value (E. faecium (enfu); air) was “lgp”.
